Measured values taken from ChEMBL document CHEMBL2384984, “Multivalent presentation of a hydrolytically stable GM(3) lactone mimetic as modulator of melanoma cells motility and adhesion” (2013).
The source made the active and inactive calls. The rule behind the calls is not given here.

Columns and labels:
A-375 [1] = test: Inhibition of human A375 cell adhesion to fibronectin-coated dish at 50 uM incubated for 30 mins measured after 1 to 4 hrs by crystal violet staining-based method relative to control; format: functional
A-375 [2] = test: Cytotoxicity against human A375 cells at 10 to 50 uM after 24 hrs by crystal-violet staining-based method; format: functional, cell-based
A-375 [3] = test: Induction of anoikis in human A375 cells at 50 uM after 24 hrs by FITC-labeled Annexin V-propidium iodide staining-based FACS flow cytometric analysis (reference value: 15%); format: functional
A-375 [4] = test: Inhibition of serum-starved human A375 cell migration at 50 uM after 24 hrs relative to control; format: functional; settings: A-375, 24 h
[5] = biological target: RAC-alpha serine/threonine-protein kinase (Homo sapiens) (UniProt P31749); test: Inhibition of AKT phosphorylation in human A375 cells at 50 uM after 24 hrs by Western blotting analysis; format: cell-based; settings: A-375
Sequence of RAC-alpha serine/threonine-protein kinase (Homo sapiens) (P31749 whole entry): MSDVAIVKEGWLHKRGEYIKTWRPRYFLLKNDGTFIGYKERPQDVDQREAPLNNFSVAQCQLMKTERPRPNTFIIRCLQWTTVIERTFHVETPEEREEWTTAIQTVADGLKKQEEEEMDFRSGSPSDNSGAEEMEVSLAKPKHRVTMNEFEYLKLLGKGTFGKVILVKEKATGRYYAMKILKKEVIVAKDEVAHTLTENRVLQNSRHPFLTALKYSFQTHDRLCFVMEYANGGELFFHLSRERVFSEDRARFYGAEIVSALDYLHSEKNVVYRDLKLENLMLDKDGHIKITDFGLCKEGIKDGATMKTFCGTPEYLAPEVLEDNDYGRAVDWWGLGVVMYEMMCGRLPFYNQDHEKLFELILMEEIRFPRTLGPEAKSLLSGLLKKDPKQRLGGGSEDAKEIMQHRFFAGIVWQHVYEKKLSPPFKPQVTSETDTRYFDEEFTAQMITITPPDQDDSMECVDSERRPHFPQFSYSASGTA

Row | inhibition [5] | Compound | inhibition (A-375 [1]) | Activity (A-375 [2]) | inhibition at 50 µM (A-375 [1]) | Activity (A-375 [3]) | inhibition at 50 µM (A-375 [4])
1 | – | O=C(CCCCC(=O)NCCNC(=O)CCN(CCC(=O)NCCNC(=O)CCCCC(=O)NCCCCCCO[C@H]1O[C@H](CO)[C@H](O)C2=C1SC[C@]1(C[C@@H](O)[C@@H](O)[C@@H]([C@H](O)CO)O1)O2)CCN(CCC(=O)NCCNC(=O)CCCCC(=O)NCCCCCCO[C@H]1O[C@H](CO)[C@H](O)C2=C1SC[C@@]1(C[C@@H](O)[C@@H](O)[C@@H]([C@H](O)CO)O1)O2)CCC(=O)NCCNC(=O)CCCCC(=O)NCCCCCCO[C@H]1O[C@H](CO)[C@H](O)C2=C1SC[C@@]1(C[C@@H](O)[C@@H](O)[C@@H]([C@H](O)CO)O1)O2)NCCCCCCO[C@H]1O[C@H](CO)[C@H](O)C2=C1SC[C@]1(C[C@@H](O)[C@@H](O)[C@@H]([C@H](O)CO)O1)O2 | inactive | inactive | – | – | –
2 | – | CC(C)(C)OC(=O)NCCN(CCC(=O)NCCNC(=O)CCCCC(=O)NCCCCCCO[C@H]1O[C@H](CO)[C@H](O)C2=C1SC[C@@]1(C[C@@H](O)[C@@H](O)[C@@H]([C@H](O)CO)O1)O2)CCC(=O)NCCNC(=O)CCCCC(=O)NCCCCCCO[C@H]1O[C@H](CO)[C@H](O)C2=C1SC[C@@]1(C[C@@H](O)[C@@H](O)[C@@H]([C@H](O)CO)O1)O2 | inactive | inactive | – | – | –
3 | – | CC(=O)OC[C@@H](OC(C)=O)[C@@H]1O[C@@]2(CSC3=C(O2)[C@@H](OC(C)=O)[C@@H](COC(C)=O)O[C@@H]3OCCCCCCNC(=O)CCCCC(=O)Oc2ccc([N+](=O)[O-])cc2)C[C@H](OC(C)=O)[C@@H]1OC(C)=O | inactive | – | – | – | –
4 | Active | CCCOc1c2cc(CCCn3cc(CCO[C@H]4O[C@H](CO)[C@H](O)C5=C4SC[C@]4(C[C@@H](O)[C@@H](O)[C@@H]([C@H](O)CO)O4)O5)nn3)cc1Cc1cc(CCCn3cc(CCO[C@H]4O[C@H](CO)[C@H](O)C5=C4SC[C@]4(C[C@@H](O)[C@@H](O)[C@@H]([C@H](O)CO)O4)O5)nn3)cc(c1OCCC)Cc1cc(CCCn3cc(CCO[C@H]4O[C@H](CO)[C@H](O)C5=C4SC[C@]4(C[C@@H](O)[C@@H](O)[C@@H]([C@H](O)CO)O4)O5)nn3)cc(c1OCCC)Cc1cc(CCCn3cc(CCO[C@H]4O[C@H](CO)[C@H](O)C5=C4SC[C@]4(C[C@@H](O)[C@@H](O)[C@@H]([C@H](O)CO)O4)O5)nn3)cc(c1OCCC)C2 | – | inactive | 33% | 32% | 60%
5 | – | CO[C@H]1O[C@H](CO)[C@H](O)C2=C1SC[C@]1(C[C@H](O)[C@H](O)[C@H]([C@H](O)CO)O1)O2 | inactive | inactive | – | – | –
6 | – | CC(C)(C)OC(=O)NCCN(CCC(=O)NCCN)CCC(=O)NCCN | inactive | – | – | – | –
